This note sets out measurements from ChEMBL document CHEMBL1201862, “PubChem BioAssay data set” (2004).

Some test systems named below: A549; HCC 2998; HCT-116; HOP-92; HT-29; Hs-578T; MDA-MB-231; Malme-3M; NCI-H522; SN12C; SNB-75; SR; SW-620; UO-31; NCI-H226; SK-MEL-2; HL-60.
Assay in all cases: NCI-60 cell line screen, 48 h

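Growth conditions: 96-well plates. Treatment: test compound, 48 hours, 5 concentrations. Analysis: linear interpolation between bracketing concentrations; unreached endpoints set to highest concentration. GI50: concentration for 50% inhibition of growth.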 Activity calls are given as the source filed them. Rule as the data show it: active = GI50 up to about 1.1 µM and inactive = higher.

For the compound `CC(C)(C)OC(=O)Cn1ncn(NC(=O)Cc2ccccc2)c1=S`, the GI50 in the assay with A549, with HCC 2998, in the assay with HCT-116, in the assay with HOP-92, with HT-29 and with Hs-578T was > 10 µM (inactive) each time. Further, the GI50 in the assay on MDA-MB-231, with Malme-3M, with NCI-H522, in the assay with SN12C, with SNB-75 and in the assay on SR was > 10 µM (inactive) throughout. For the same compound, the GI50 with SW-620 and with UO-31 was > 10 µM (inactive) each time.

Turning to `Cc1cccc(Cl)c1NCC(O)CN1CCN(C)CC1` (stereo unspecified), the GI50 in the assay on A549, in the assay on HCC 2998, with HCT-116, in the assay with HOP-92, with HT-29 and in the assay with Hs-578T was > 100 µM (inactive) in each case. In addition, the GI50 with MDA-MB-231, in the assay on Malme-3M, in the assay on NCI-H226, in the assay on NCI-H522, with SK-MEL-2 and in the assay on SN12C was > 100 µM (inactive) in each case. For the same compound, the GI50 in the assay on SNB-75, with SR, with SW-620 and in the assay on UO-31 was > 100 µM (inactive) throughout.

As for `CCOP(=O)(OCC)/C(C#N)=C/c1ccnc2ccccc12`, the GI50 in the assay on A549 was > 100 µM (inactive); with HCC 2998, > 100 µM (inactive); with HCT-116, 3.27 µM (inactive); with HOP-92 it was 18.4 µM (inactive); with HT-29, 19.7 µM (inactive); with Hs-578T, 23.7 µM (inactive). Besides, the GI50 was 24.9 µM (inactive) with MDA-MB-231; 14 µM (inactive) in the assay with Malme-3M; 24.8 µM (inactive) in the assay on NCI-H226; 21.2 µM (inactive) in the assay on NCI-H522; 25 µM (inactive) in the assay on SK-MEL-2; 28.6 µM (inactive) in the assay with SN12C. The GI50 is 25.9 µM (inactive) in the assay with SNB-75, 21.9 µM (inactive) in the assay with SR, 27.3 µM (inactive) in the assay with SW-620 and < 0.01 µM (active) in the assay with UO-31.

With `COc1cccc(N2C(=O)CS(=O)(=O)C2c2cccc(Oc3ccccc3)c2)c1` (stereo unspecified), the GI50 with A549 was 26.7 µM (inactive); in the assay with HCT-116, 11.1 µM (inactive); in the assay with HL-60 it was 11 µM (inactive); in the assay on HOP-92, 12.7 µM (inactive); with HT-29, 13.1 µM (inactive); with Hs-578T it was 21.8 µM (inactive). Further, the GI50 with MDA-MB-231 is 30.4 µM (inactive); in the assay with Malme-3M it was 15.9 µM (inactive); in the assay on NCI-H226 it was 19.1 µM (inactive); with NCI-H522 it was 6.53 µM (inactive); with SK-MEL-2, 14.2 µM (inactive); in the assay on SN12C it was 17.6 µM (inactive). Also, the GI50 with SNB-75 was 15.6 µM (inactive); in the assay with SR, 3.13 µM (inactive); with SW-620, 15.6 µM (inactive); with UO-31, 34.4 µM (inactive).

Regarding `O=C(O)c1ccccc1Sc1ccccc1[N+](=O)[O-]`, the GI50 in the assay on A549, in the assay with HCC 2998, with HCT-116, with HL-60, with HOP-92 and in the assay with HT-29 was > 100 µM (inactive) each time. Also, the GI50 in the assay on Hs-578T, with MDA-MB-231, in the assay on Malme-3M, in the assay with NCI-H226, in the assay with NCI-H522 and in the assay on SK-MEL-2 was > 100 µM (inactive) each time. Also, the GI50 is > 100 µM (inactive) with SN12C, 76.9 µM (inactive) with SNB-75, > 100 µM (inactive) in the assay with SW-620 and > 100 µM (inactive) in the assay on UO-31.

Take `COc1ccc(C[N+]23C(CC[C@H]2c2ccccc2)CC[C@H]3c2ccccc2)cc1` (stereo partly specified): the GI50 is 31.3 µM (inactive) in the assay on A549; 24.5 µM (inactive) with HCT-116; 4.06 µM (inactive) with HL-60; 9.66 µM (inactive) with HOP-92; 12.2 µM (inactive) in the assay on HT-29; 27.7 µM (inactive) with Hs-578T. The GI50 was 28.2 µM (inactive) with MDA-MB-231; 11.4 µM (inactive) in the assay on Malme-3M; 14.1 µM (inactive) in the assay on NCI-H226; 8.73 µM (inactive) in the assay on NCI-H522; 18.5 µM (inactive) in the assay with SK-MEL-2; 36.9 µM (inactive) in the assay with SN12C. For the same compound, the GI50 was 18.3 µM (inactive) in the assay on SNB-75, 15.7 µM (inactive) in the assay with SR, 28.2 µM (inactive) in the assay with SW-620 and 31.9 µM (inactive) in the assay with UO-31.

`CCN1C(=O)/C(=C/Nc2ccccc2)S/C1=N/Nc1nc(-c2ccc(O)c(O)c2)cs1`: the GI50 with A549 is 33.7 µM (inactive); with HCT-116 it was 8.63 µM (inactive); in the assay on HL-60, 2.33 µM (inactive); with HOP-92 it was 13.2 µM (inactive); in the assay with HT-29, 29.8 µM (inactive); with Hs-578T, 96.2 µM (inactive). For the same compound, the GI50 with MDA-MB-231 is 6.65 µM (inactive); in the assay with Malme-3M, 6.19 µM (inactive); with NCI-H226 it was 51.5 µM (inactive); with NCI-H522 it was 3.66 µM (inactive); with SK-MEL-2 it was 4.31 µM (inactive); with SN12C, 4.24 µM (inactive). The GI50 in the assay on SNB-75 is 3.05 µM (inactive); with SR, 2.7 µM (inactive); with SW-620 it was 8.47 µM (inactive); with UO-31 it was 8.02 µM (inactive).

Regarding `CC1(C)C(CC(=O)O)CCCC1CC(=O)O` (stereo unspecified), the GI50 in the assay with A549 was > 100 µM (inactive); in the assay with HCT-116 it was > 100 µM (inactive); in the assay on HT-29 it was > 100 µM (inactive); in the assay with Hs-578T, > 100 µM (inactive); in the assay on MDA-MB-231 it was > 100 µM (inactive); in the assay with NCI-H226, 55.5 µM (inactive). For the same compound, the GI50 with SK-MEL-2, with SN12C, in the assay with SR, in the assay on SW-620 and in the assay with UO-31 was > 100 µM (inactive) each time.

As for `COc1ccc2c(c1)-c1c(c3cc(OC)ccc3n1CCN(C)C)CC2`, the GI50 with A549 is 15.4 µM (inactive); in the assay on HCC 2998, 7.48 µM (inactive); in the assay with HCT-116, 12.1 µM (inactive); in the assay on HOP-92 it was 14.1 µM (inactive); with HT-29 it was 5.18 µM (inactive); in the assay on Hs-578T, 13.7 µM (inactive). Moreover, the GI50 was 13.9 µM (inactive) in the assay with MDA-MB-231; 16.1 µM (inactive) in the assay on Malme-3M; 13.4 µM (inactive) with NCI-H226; 17.9 µM (inactive) with NCI-H522; 14.5 µM (inactive) with SK-MEL-2; 12.9 µM (inactive) in the assay with SN12C. Moreover, the GI50 was 21.9 µM (inactive) with SNB-75, 7.03 µM (inactive) in the assay with SR, 15.2 µM (inactive) in the assay on SW-620 and 11.1 µM (inactive) in the assay on UO-31.

`Cc1cc(C)c(S(=O)(=O)N2CCCN(S(=O)(=O)c3c(C)cc(C)cc3C)OCCCO2)c(C)c1`: the GI50 was > 100 µM (inactive) in the assay on A549; > 100 µM (inactive) in the assay on HCT-116; > 100 µM (inactive) in the assay with HL-60; 47.1 µM (inactive) with HOP-92; > 100 µM (inactive) with HT-29; > 100 µM (inactive) in the assay with Hs-578T. The GI50 in the assay on MDA-MB-231, in the assay on Malme-3M, in the assay on NCI-H226, in the assay on NCI-H522, in the assay on SK-MEL-2 and with SN12C was > 100 µM (inactive) in each case. In addition, the GI50 is 57.1 µM (inactive) in the assay with SNB-75, > 100 µM (inactive) in the assay with SW-620 and > 100 µM (inactive) in the assay with UO-31.

Take `Nc1ccc(CCN2CCN(CCCc3ccccc3)CC2)cc1`: the GI50 in the assay on A549 is > 100 µM (inactive); in the assay on HCC 2998, 34.4 µM (inactive); in the assay on HCT-116, 31.9 µM (inactive); with HL-60 it was 26.6 µM (inactive); in the assay with HT-29, 16.2 µM (inactive); in the assay with Hs-578T, > 100 µM (inactive). Also, the GI50 is 60.8 µM (inactive) with MDA-MB-231; 38.5 µM (inactive) with Malme-3M; > 100 µM (inactive) in the assay with NCI-H226; 39.2 µM (inactive) in the assay with NCI-H522; > 100 µM (inactive) with SK-MEL-2; > 100 µM (inactive) in the assay with SN12C. Further, the GI50 in the assay with SR is 27.6 µM (inactive); in the assay on SW-620 it was > 100 µM (inactive); in the assay with UO-31, 56.9 µM (inactive).

On to `COc1c(C)c(C/C=C(\C)CCCCO[Si](C(C)C)(C(C)C)C(C)C)c(OC)c2ccccc12`, for which the GI50 with A549 was > 100 µM (inactive); in the assay on HCC 2998 it was > 10 µM (inactive); with HCT-116 it was > 100 µM (inactive); with HOP-92 it was > 100 µM (inactive); with HT-29 it was > 100 µM (inactive); in the assay on Hs-578T, > 100 µM (inactive). Also, the GI50 was > 100 µM (inactive) with MDA-MB-231; > 100 µM (inactive) with NCI-H522; > 100 µM (inactive) with SK-MEL-2; > 100 µM (inactive) in the assay on SN12C; > 100 µM (inactive) in the assay with SNB-75; 70.1 µM (inactive) with SR. The GI50 in the assay with SW-620 and in the assay with UO-31 was > 100 µM (inactive) throughout.

Take `CC(=O)Nc1ccc(C(=O)N[C@@H]2C(=O)N3[C@@H]2SC(C)(C)[C@@H]3C(=O)O)cn1`: the GI50 in the assay on A549, in the assay on HCC 2998, in the assay on HCT-116, in the assay on HL-60, in the assay on HOP-92 and in the assay with HT-29 was > 100 µM (inactive) throughout. Besides, the GI50 with Hs-578T, in the assay with MDA-MB-231, with Malme-3M, in the assay with NCI-H226, with SK-MEL-2 and with SN12C was > 100 µM (inactive) in each case. The GI50 in the assay on SNB-75, in the assay with SW-620 and in the assay on UO-31 was > 100 µM (inactive) throughout.
